We go through 5 compounds from patent publication US8399399B2, “3- and 4-methyl dodecenal and their use in fragrance and flavour compositions” (Givaudan SA, priority 2005, dated 2013).

The nature of this assay: Determination of GC-odour threshold concentration (gas chromatograph with sniff port, panel of trained evaluators). As to conditions: for odour threshold of the (Z)-isomer compared to its corresponding (E)-isomer (times higher): pure (Z)-isomer versus pure (E)-isomer; for odour threshold concentration, geometric mean: GC sniff port, absolute amount of compound delivered at the sniff port, group of 5 panelists, identical conditions. As to the method:
The odour threshold concentration is defined as the lowest concentration of the vapour of an odourant material in the air which can be detected by smell and can be measured by standard methods known in the art.
According to standard procedures known to the person skilled in the art, threshold concentrations for volatile perfumery compounds are determined on a gas chromatograph equipped with a sniff port by a panel of trained evaluators. The lowest concentration smelled by each panellist is recorded as the individual threshold concentration expressed in ng (absolute amount of compound delivered at the sniff port).
Under identical conditions the odour threshold concentration for (E)-2-methyl-4-dodecenal (prior art), (E)-3-methyl-4-dodecenal and (E)-4-methyl-4-dodecenal was measured and compared by a group of 5 panelists.

On to `CCCCCCC/C=C\C(C)CC=O` (centres unmarked) [(Z)-3-methyl-4-dodecenal], for which the “odour threshold of the (Z)-isomer compared to its corresponding (E)-isomer (times higher)” value is 5 times.

With `CCCCCCC/C=C/CC(C)C=O` (centres unmarked) [(E)-2-methyl-4-dodecenal, reference compound], the “odour threshold concentration, geometric mean” value (“odour threshold concentration” below) is 3.2 ng.

Consider `CCCCCCC/C=C/C(C)CC=O` (centres unmarked) [(E)-3-methyl-4-dodecenal], for which the “odour threshold concentration” value is listed as 1.0 ng.

Take `CCCCCCC/C=C(\C)CCC=O` [(E)-4-methyl-4-dodecenal, (E)-4-Methyl-4-dodecenal]: the “odour threshold concentration” value is 0.05 ng.

In the case of `CCCCCCC/C=C(/C)CCC=O` [(Z)-4-methyl-4-dodecenal, (Z)-4-Methyl-4-dodecenal], the “odour threshold of the (Z)-isomer compared to its corresponding (E)-isomer (times higher)” value is given as 20 times.
